Reference: patent publication US5888757A, “Cell wall assay” (Millennium Pharmaceuticals, Inc., priority 1996, dated 1999)

Assays:
[1] = biological target: T1, CaCHS1p (chitin synthase of Candida albicans) (Candida albicans, UniProt P23316); assay: Chitin synthase inhibition assay (WGA capture / WGA-HRP detection of chitin synthesized in vitro); assay type: biochemical; settings: inhibitor added over a range of concentrations, to a maximal concentration of 1 mM; FIG. 3
Text: Preparation of CaCHS1p Membranes: In this example, chitin synthase was obtained from the S. cerevisiae strain 68-11-2C, transformed with the plasmid pJA16 (Bulawa et al., 1990, Proc. Natl. Acad. Sci. USA, 87:7424-7428 and Au-Young et al., 1990, Mol. Micro. 4:197-207). In strain 68-11-2C, the S. cerevisiae genes encoding chitin synthases 1 and 2 (CHS1 and CHS2, respectively) were genetically disrupted, rendering the strain deficient in production of these enzymes. The plasmid pJA16 encodes the chitin synthase gene of Candida albicans, and provides the only significant source of chitin in this assay.
Generally, the strain 68-1-2C/pJA16 is maintained on a supplemented SD medium. In this example, the cells were grown in 1 liter of SD medium for 48 hrs at 30° C. To provide good aeration, the culture was divided into two 500 ml cultures and grown in 2-liter flasks until the culture reached the stationary phase (i.e., until the OD600 of the culture reached 1.2-1.4). […] The cell walls then were broken by vortexing aliquots (2 ml) of the resuspended cells for 2 minutes with 3 ml of glass beads, according to conventional protocols. The cell extracts then were centrifuged for 5 minutes at 1,000×g, and the resulting supernatant was stored at -80° C. until it was used in the chitin synthase reactions described below. Frozen CaCHS1p membranes can be thawed at 30° C. […]

[2] = biological target: T1, CaCHS1p (chitin synthase of Candida albicans); settings: known relative potency, Nikkomycin Z versus Asperfuran; cited from earlier work

T1 sequence (P23316 whole entry): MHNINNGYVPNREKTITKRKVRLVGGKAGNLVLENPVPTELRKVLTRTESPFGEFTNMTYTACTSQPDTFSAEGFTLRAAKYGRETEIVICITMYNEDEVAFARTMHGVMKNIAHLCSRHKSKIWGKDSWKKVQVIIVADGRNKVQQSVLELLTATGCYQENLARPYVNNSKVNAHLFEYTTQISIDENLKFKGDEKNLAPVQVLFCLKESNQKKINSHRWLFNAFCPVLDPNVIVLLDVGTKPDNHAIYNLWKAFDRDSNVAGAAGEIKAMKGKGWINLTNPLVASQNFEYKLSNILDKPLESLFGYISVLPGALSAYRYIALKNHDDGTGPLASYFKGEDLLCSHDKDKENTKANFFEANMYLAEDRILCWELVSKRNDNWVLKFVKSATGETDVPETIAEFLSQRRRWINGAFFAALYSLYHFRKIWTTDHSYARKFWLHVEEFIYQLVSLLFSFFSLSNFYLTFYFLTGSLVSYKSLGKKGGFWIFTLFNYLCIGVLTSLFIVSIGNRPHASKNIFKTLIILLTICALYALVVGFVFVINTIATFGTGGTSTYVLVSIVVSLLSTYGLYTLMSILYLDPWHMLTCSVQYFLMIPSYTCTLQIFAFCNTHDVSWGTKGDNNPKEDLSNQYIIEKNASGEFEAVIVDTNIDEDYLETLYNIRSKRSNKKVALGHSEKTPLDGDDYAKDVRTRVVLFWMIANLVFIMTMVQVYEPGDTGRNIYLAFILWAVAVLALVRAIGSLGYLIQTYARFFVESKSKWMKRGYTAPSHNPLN

| Structure (SMILES) | inhibition of chitin synthase [1] | relative potency as inhibitor of CaCHS1p activity [2] |
| --- | --- | --- |
| C/C=C/C=C/[C@H]1Cc2cc(O)cc(O)c2O1 [Asperfuran] | an increase in the concentration of either of these chitin synthase inhibitors causes an increase in the inhibition of chitin synthase |  |
| C[C@@H]([C@H](N)C(=O)N[C@H](C(=O)O)[C@H]1O[C@@H](n2ccc(=O)[nH]c2=O)[C@H](O)[C@@H]1O)[C@H](O)c1ccc(O)cn1 [Nikkomycin Z] | an increase in the concentration of either of these chitin synthase inhibitors causes an increase in the inhibition of chitin synthase | more potent inhibitor of CaCHS1p activity than is Asperfuran |
